Measured values reported in US8871680B2, “Herbicidal compositions comprising 4-amino-3-chloro-5-fluoro-6-(4-chloro-2-fluoro-3-methoxyphenyl) pyridine-2-carboxylic acid or a derivative thereof and a di-methoxy-pyrimidine and derivatives thereof” (Dow AgroSciences LLC, priority 2012, dated 2014).

Columns and labels:
DIGSA = test: Postemergence foliar-applied weed control, direct seeded rice (greenhouse); format: in vivo, Digitaria sanguinalis (L.) Scop.
Text: (§1) Seeds or nutlets of the desired test plant species were planted in a soil matrix prepared by mixing a loam or sandy loam soil (e.g., 28.6 percent silt, 18.8 percent clay, and 52.6 percent sand, with a pH of about 5.8 and an organic matter content of about 1.8 percent) and calcareous grit in an 80 to 20 ratio. The soil matrix was contained in plastic pots with a volume of 1 quart and a surface area of 83.6 square centimeters (cm^2). When required to ensure good germination and healthy plants, a fungicide treatment and/or other chemical or physical treatment was applied. The plants were grown for 8-22 days in a greenhouse with an approximate 14 hr photoperiod which was maintained at about 29° C. during the day and 26° C. during the night. Nutrients (Peters Excel® 15-5-15 5-Ca 2-Mg and iron chelate) were applied in the irrigation solution as needed and water was added on a regular basis. Supplemental lighting was provided with overhead metal halide 1000-Watt lamps as necessary. The plants were employed for testing when they reached the first through fourth true leaf stage.
(§2) Treatments consisted of the acid or esters of 4-amino-3-chloro-5-fluoro-6-(4-chloro-2-fluoro-3-methoxy-phenyl)pyridine-2-carboxylic acid (Compound A), each formulated as an SC (suspension concentrate), and various herbicidal components alone and in combination. Forms of compound A were applied on an acid equivalent basis.
(§3) Other herbicidal components were applied on an active ingredient basis and included the dimethoxy-pyrimidine acid acetolactate synthase (ALS)-inhibiting herbicides bispyribac-sodium formulated as Regiment® 80WP, pyribenzoxim (technical grade material), pyriminobac-methyl formulated as Hie-Clean® 1.2% GR dissolved in water, and pyriftalid (technical grade material).
(§4) Treatment requirements were calculated based upon the rates being tested, the concentration of active ingredient or acid equivalent in the formulation, and a 12 mL application volume at a rate of 187 L/ha.
(§5) For treatments comprised of formulated compounds, measured amounts of compounds were placed individually in 25 mL glass vials and diluted in a volume of 1.25% (v/v) Agri-Dex® crop oil concentrated to obtain 12× stock solutions. […] Application solutions were prepared by adding an appropriate amount of each stock solution (e.g., 1 mL) and diluted to the appropriate final concentrations with the addition of 10 mL of an aqueous mixture of 1.25% (v/v) crop oil concentrate so that the final spray solutions contained 1.25+/−0.005% (v/v) crop oil concentrate.
For treatments comprised of technical compounds, weighed amounts can be placed individually in 25 mL glass vials and dissolved in a volume of 97:3 v/v acetone/DMSO to obtain 12× stock solutions. […] Application solutions can be prepared by adding an appropriate amount of each stock solution (e.g., 1 mL) and diluted to the appropriate final concentrations with the addition of 10 mL of an aqueous mixture of 1.5% (v/v) crop oil concentrate so that the final spray solutions contain 1.25% (v/v) crop oil concentrate. […]
(§6) For treatments comprised of formulated and technical compounds, weighed amounts of the technical materials were placed individually in 25 mL glass vials and dissolved in a volume of 97:3 v/v acetone/DMSO to obtain 12× stock solutions, and measured amounts of the formulated compounds were placed individually in 25 mL glass vials and diluted in a volume of 1.5% (v/v) crop oil concentrate or water to obtain 12× stock solutions. […]

IPOHE = test: as above; format: in vivo, Ipomoea hederacea Jacq.
Text: as §1, §2, §3, §4, §5
For treatments comprised of technical compounds, weighed amounts can be placed individually in 25 mL glass vials and dissolved in a volume of 97:3 v/v acetone/DMSO to obtain 12× stock solutions. […] Application solutions can be prepared by adding an appropriate amount of each stock solution (e.g., 1 mL) and diluted to the appropriate final concentrations with the addition of 10 mL of an aqueous mixture of 1.5% (v/v) crop oil concentrate so that the final spray solutions contain 1.25% (v/v) crop oil concentrate. When technical materials are used, the concentrated stock solutions can be added to the spray solutions so that the final acetone and DMSO concentrations of the application solutions are 16.2% and 0.5%, respectively.
as §6

BRAPP = test: as above; format: in vivo, Brachiaria platyphylla (Griseb.) Nash; settings: 4.38 gae/ha
Text: as §1, with “stage. […]” for “stage.”
as §4
For treatments comprised of formulated compounds, measured amounts of compounds were placed individually in 25 mL glass vials and diluted in a volume of 1.25% (v/v) Agri-Dex® crop oil concentrated to obtain 12× stock solutions. […]
as §6

ECHCG = test: In-water applied weed control, transplanted paddy rice (greenhouse); format: in vivo, Echinochloa crusgalli (L.) Beauv.
Method: (§7) Weed seeds or nutlets of the desired test plant species were planted in puddled soil (mud) prepared by mixing a shredded, non-sterilized mineral soil (50.5 percent silt, 25.5 percent clay, and 24 percent sand, with a pH of about 7.6 and an organic matter content of about 2.9 percent) and water at a 1:1 volumetric ratio. The prepared mud was dispensed in 365 mL aliquots into 16-ounce (oz.) non-perforated plastic pots with a surface area of 86.59 square centimeters (cm^2) leaving a headspace of 3 centimeters (cm) in each pot. Mud was allowed to dry overnight prior to planting or transplanting. Rice seeds were planted in Sun Gro MetroMix® 306 planting mixture, which typically has a pH of 6.0 to 6.8 and an organic matter content of about 30 percent, in plastic plug trays. Seedlings at the second or third leaf stage of growth were transplanted into 860 mL of mud contained in 32-oz. non-perforated plastic pots with a surface area of 86.59 cm^2 4 days prior to herbicide application. The paddy was created by filling the headspace of the pots with 2.5 to 3 cm of water. When required to ensure good germination and healthy plants, a fungicide treatment and/or other chemical or physical treatment was applied. The plants were grown for 4-22 days in a greenhouse with an approximate 14 hr photoperiod which was maintained at about 29′C during the day and 26° C. during the night. Nutrients were added as Osmocote® (19:6:12, N:P:K+minor nutrients) at 2 g per 16-oz. pot and 4 g per 32-oz. pot. Water was added on a regular basis to maintain the paddy flood, and supplemental lighting was provided with overhead metal halide 1000-Watt lamps as necessary. The plants were employed for testing when they reached the first through fourth true leaf stage.
(§8) Treatments consisted of the acid or esters of 4-amino-3-chloro-5-fluoro-6-(4-chloro-2-fluoro-3-methoxy-phenyl)pyridine-2-carboxylic acid (compound A) each formulated as an SC and various herbicidal components alone and in combination. Forms of compound A were applied on an acid equivalent basis.
(§9) Other herbicidal components were applied on an active ingredient basis and included the dimethoxy-pyrimidine acid acetolactate synthase (ALS)-inhibiting herbicides bispyribac-sodium formulated as Regiment® 80 WP, pyriminobac-methyl formulated as Hie Clean®, and pyriftalid (technical grade material).
(§10) Treatment requirements for each compound or herbicidal component were calculated based upon the rates being tested, the concentration of active ingredient or acid equivalent in the formulation, an application volume of 2 mL per component per pot, and an application area of 86.59 cm^2 per pot.
(§11) For formulated compounds, a measured amount was placed in an individual 100 or 200 mL glass vial and was dissolved in a volume of 1.25% (v/v) Agri-Dex® crop oil concentrate to obtain application solutions.
(§12) For technical grade compounds, a weighed amount was placed in an individual 100 to 200 mL glass vial and was dissolved in a volume of acetone to obtain concentrated stock solutions. […] The concentrated stock solutions obtained were diluted with an equivalent volume of an aqueous mixture containing 2.5% (v/v) crop oil concentrate so that the final application solutions contained 1.25% (v/v) crop oil concentrate.
(§13) Applications were made by injecting with a pipetter appropriate amounts of the application solutions, individually and sequentially, into the aqueous layer of the paddy.
(§14) Control plants were treated in the same manner with the solvent blank. Applications were made so that all treated plant material received the same concentrations of acetone and crop oil concentrate.
(§15) The treated plants and control plants were placed in a greenhouse as described above and water was added as needed to maintain a paddy flood. […]

ECHOR = test: as above; format: in vivo, Echinochloa oryzoides (Ard.) Fritsch; settings: 42.2 gae/ha
Method: as §7, §8, §9, §10, §11, §12, §13
(§16) Control plants were treated in the same manner with the solvent blank. […]

LEFCH = test: as above; format: in vivo, Leptochloa chinensis (L.) Nees
Method: as §7, §8, §9, §10, §11, §12, §13, §16

SCPMA = test: as above; format: in vivo, Bolboschoenus maritimus (L.) Palla
Method: as §7, §8, §9, §10, §11, §12, §13, §14, §15

CYPRO = test: as above; format: in vivo, Cyperus rotundus L.
Method: as §7, §8, §9, §10, §11, §12, §13, §14, §15

ECHCO = test: as above; format: in vivo, Echinochloa colona (L.) Link
Method: as §7, with “Water was added on a regular basis to maintain the paddy flood, and supplemental lighting was provided with overhead metal halide 1000-Watt lamps as necessary. The plants were employed for testing when they reached the first through fourth true leaf stage.” left out
as §10
For formulated compounds, a measured amount was placed in an individual 100 or 200 mL glass vial and was dissolved in a volume of 1.25% (v/v) Agri-Dex® crop oil concentrate to obtain application solutions. […]

FIMMI = test: as above; format: in vivo, Fimbristylis miliacea (L.) Vahl
Method: as §7, §8, §9, §10, §11, §12, §13, §14, §15

For `COc1c(Cl)ccc(-c2nc(C(=O)O)c(Cl)c(N)c2F)c1F` [Compound A Acid, 4-amino-3-chloro-6-(4-chloro-2-fluoro-3-methoxyphenyl)-5-fluoropyridine-2-carboxylic acid], the “Visual Weed Control (%)-24 DAA DIGSA Obs” value (DIGSA; 4.38 gae/ha) was 20%, the “Visual Weed Control (%)-24 DAA DIGSA Obs” value (DIGSA; 8.75 gae/ha) was 25% and the “Visual Weed Control (%)-24 DAA DIGSA Obs” value (DIGSA; 17.5 gae/ha) was 25%. The “Visual Weed Control (%)-24 DAA IPOHE Obs” value (IPOHE; 4.38 gae/ha) was 10%, the “Visual Weed Control (%)-24 DAA IPOHE Obs” value (IPOHE; 8.75 gae/ha) was 10% and the “Visual Weed Control (%)-24 DAA IPOHE Obs” value (IPOHE; 17.5 gae/ha) was 30%. The “Visual Weed Control (%)-24 DAA IPOHE Obs” value (IPOHE; 17.5 gae/ha, second part of Table 3) was 25%, the “Visual Weed Control (%)-24 DAA IPOHE Obs” value (IPOHE; 35 gae/ha, second part of Table 3) was 48% and the “Visual Weed Control (%)-22 DAA BRAPP Obs” value (BRAPP) was 45%. The “Visual Weed Control (%) - 20 DAA ECHCG Obs” value (ECHCG; 8.75 gae/ha) was 0%, the “Visual Weed Control (%) - 20 DAA ECHCG Obs” value (ECHCG; 17.5 gae/ha) was 35% and the “Visual Weed Control (%) - 20 DAA ECHCG Obs” value (ECHCG; 35 gae/ha) was 55%. The “Visual Weed Control (%) - 20 DAA ECHCG Obs” value (ECHCG; 42.2 gae/ha) was 18%, the “Visual Weed Control (%)-20 DAA ECHOR Obs” value (ECHOR) was 18% and the “Visual Weed Control (%)-21 DAA LEFCH Obs” value (LEFCH; 8.75 gae/ha) was 0%. For the same compound, the “Visual Weed Control (%)-21 DAA LEFCH Obs” value (LEFCH; 17.5 gae/ha) was 0%, the “Visual Weed Control (%)-20 DAA LEFCH Obs” value (LEFCH; 42.2 gae/ha) was 15% and the “Visual Weed Control (%)-21 DAA SCPMA Obs” value (SCPMA; 8.75 gae/ha) was 0%. For the same compound, the “Visual Weed Control (%)-21 DAA SCPMA Obs” value (SCPMA; 17.5 gae/ha) was 0%, the “Visual Weed Control (%)-20 DAA SCPMA Obs” value (SCPMA; 35 gae/ha) was 0% and the “Visual Weed Control (%)-21 DAA SCPMA Obs” value (SCPMA; 35 gae/ha) was 0%. The “Visual Weed Control (%)-20 DAA SCPMA Obs” value (SCPMA; 42.2 gae/ha) was 0%, the “Visual Weed Control (%)-20 DAA SCPMA Obs” value (SCPMA; 70 gae/ha) was 0% and the “Visual Weed Control (%)-21 DAA CYPRO Obs” value (CYPRO; 8.75 gae/ha) was 30%. The “Visual Weed Control (%)-21 DAA CYPRO Obs” value (CYPRO; 17.5 gae/ha) was 40%, the “Visual Weed Control (%)-21 DAA CYPRO Obs” value (CYPRO; 35 gae/ha) was 70% and the “Visual Weed Control (%)-21 DAA ECHCO Obs” value (ECHCO; 8.75 gae/ha) was 0%. For the same compound, the “Visual Weed Control (%)-21 DAA ECHCO Obs” value (ECHCO; 17.5 gae/ha) was 20%, the “Visual Weed Control (%)-21 DAA FIMMI Obs” value (FIMMI; 8.75 gae/ha) was 50% and the “Visual Weed Control (%)-21 DAA FIMMI Obs” value (FIMMI; 17.5 gae/ha) was 85%. The “Visual Weed Control (%)-21 DAA FIMMI Obs” value (FIMMI; 35 gae/ha) was 85%.
